Experimental data: ChEMBL document CHEMBL5154799, “Discovery of a Novel Stilbene Derivative as a Microtubule Targeting Agent Capable of Inducing Cell Ferroptosis” (J Med Chem, 2022)

Columns and labels:
Format in all cases: functional, cell-based
A549 = assay: Antiproliferative activity against human A549 cells assessed as cell viability incubated for 48 hrs by MTT assay; conditions: A549, 48 h
HeLa = assay: Antiproliferative activity against human HeLa cells assessed as cell viability incubated for 48 hrs by MTT assay
A2780 = assay: Antiproliferative activity against human A2780 cells assessed as cell viability incubated for 48 hrs by MTT assay; conditions: A2780, 48 h
HCT-8 = assay: Antiproliferative activity against human HCT-8 cells assessed as cell viability incubated for 48 hrs by MTT assay; conditions: HCT-8, 48 h
MCF7 = assay: Antiproliferative activity against human MCF7 cells assessed as cell viability incubated for 48 hrs by MTT assay; conditions: MCF7, 48 h

| SMILES | IC50 (A549) [nM] | IC50 (HeLa) [nM] | IC50 (A2780) [nM] | IC50 (HCT-8) [nM] | IC50 (MCF7) [nM] |
| --- | --- | --- | --- | --- | --- |
| C=C(c1ccc2c(c1)C=CC(C)(C)O2)c1ccc(OC)cc1NC(=O)CO | 40 | 100 | 110 | 220 | 390 |
| COc1ccc(C(=O)c2ccc(OC)c3c2C=CC(C)(C)O3)c(NC(=O)CN)c1 | 420 | 100 | 890 | 1050 | 1250 |
| COc1ccc(C(=O)c2cc(OC)c(OC)c(OC)c2)c(NC(=O)CN)c1 | 220 | 130 | 190 | 330 | 270 |
| C=C(c1cc(OC)c(OC)c(OC)c1)c1ccc(OC)cc1NC(=O)CNCC | 260 | 430 | 450 | 590 | 860 |
| C=C(c1ccc(OC)cc1NC(=O)CNCC)c1ccc(OC)c2c1OC(C)(C)C=C2 | 970 | 1090 | 1030 | 1380 | 2100 |
| C=C(c1cc(OC)c(OC)c(OC)c1)c1ccc(OC)cc1NC(=O)CN | 40 | 70 | 30 | 60 | 190 |
| COc1ccc(C(C)c2cc(OC)c(OC)c(OC)c2)c(NC(=O)CO)c1O (stereo not given) | 180 | 390 | 280 | 590 | 790 |
| C=C(c1cc(OC)c(OC)c(OC)c1)c1ccc(OC)cc1NC(=O)CO | 20 | 30 | 30 | 40 | 110 |
| CNCC(=O)Nc1cc(OC)ccc1C(=O)c1cc(OC)c(OC)c(OC)c1 | 610 | 690 | 580 | 780 | 550 |
| C=C(c1ccc2c(c1)C=CC(C)(C)O2)c1ccc(OC)cc1NC(=O)CNCC | 1180 | 1580 | 1870 | 2220 | 3370 |
| COc1ccc(C(=O)c2ccc3c(c2)C=CC(C)(C)O3)c(NC(=O)CBr)c1 | 1980 | 3050 | 1870 | 3260 | 2880 |
| C=C(c1cc(OC)c(OC)c(OC)c1)c1ccc(OC)c(O)c1NC(=O)CN(C)C | 50 | 120 | 90 | 110 | 210 |
| C=C(c1ccc(OC)cc1NC(=O)CN)c1ccc(OC)c2c1C=CC(C)(C)O2 | 90 | 200 | 400 | 520 | 780 |
| CNCC(=O)Nc1cc(OC)ccc1C(=O)c1ccc2c(c1)C=CC(C)(C)O2 | 800 | 970 | 850 | 1010 | 1210 |
| COc1ccc(C(=O)c2ccc(OC)c3c2C=CC(C)(C)O3)c(NC(=O)CBr)c1 | 2460 | 3680 | 2150 | 4360 | 3290 |
| C=C(c1ccc2c(c1)C=CC(C)(C)O2)c1ccc(OC)cc1NC(=O)CNC | 200 | 410 | 320 | 590 | 720 |
| C=C(c1ccc(OC)cc1NC(=O)CN(C)C)c1ccc(OC)c2c1OC(C)(C)C=C2 | 270 | 900 | 420 | 690 | 500 |
| COc1ccc(C(=O)c2ccc(OC)c3c2OC(C)(C)C=C3)c(NC(=O)CN)c1 | 270 | 410 | 380 | 370 | 410 |
| C=C(c1ccc(OC)cc1NC(=O)CN(C)C)c1ccc(OC)c2c1C=CC(C)(C)O2 | 550 | 790 | 670 | 1920 | 2580 |

| SMILES | IC50 (A549) [nM] | IC50 (HeLa) [nM] | IC50 (A2780) [nM] | IC50 (HCT-8) [nM] | IC50 (MCF7) [nM] |
| --- | --- | --- | --- | --- | --- |
| C=C(c1ccc(OC)cc1NC(=O)CNC)c1ccc(OC)c2c1OC(C)(C)C=C2 | 150 | 310 | 210 | 320 | 400 |
| C=C(c1cc(OC)c(OC)c(OC)c1)c1ccc(OC)cc1NC(=O)CNC | 100 | 140 | 140 | 190 | 240 |
| COc1ccc(C(=O)c2ccc(OC)c3c2OC(C)(C)C=C3)c(NC(=O)CBr)c1 | 1210 | 2140 | 980 | 3250 | 2360 |
| C=C(c1ccc(OC)cc1NC(=O)CO)c1ccc(OC)c2c1C=CC(C)(C)O2 | 70 | 100 | 280 | 470 | 590 |
| C=C(c1cc(OC)c(OC)c(OC)c1)c1ccc(OC)c(O)c1NC(=O)COCC | 880 | 690 | 1230 | 910 | 1050 |
| C=C(c1cc(OC)c(OC)c(OC)c1)c1ccc(OC)cc1NC(=O)CN(C)C | 130 | 370 | 240 | 340 | 390 |
| C=C(c1ccc(OC)cc1NC(=O)CN)c1ccc(OC)c2c1OC(C)(C)C=C2 | 50 | 120 | 80 | 190 | 220 |
| CNCC(=O)Nc1cc(OC)ccc1C(=O)c1ccc(OC)c2c1OC(C)(C)C=C2 | 620 | 870 | 620 | 740 | 820 |
| COc1ccc(C(=O)c2ccc3c(c2)C=CC(C)(C)O3)c(NC(=O)CO)c1 | 90 | 240 | 130 | 250 | 200 |
| CCNCC(=O)Nc1cc(OC)ccc1C(=O)c1cc(OC)c(OC)c(OC)c1 | 750 | 2100 | 950 | 1560 | 1050 |
| CCNCC(=O)Nc1cc(OC)ccc1C(=O)c1ccc(OC)c2c1C=CC(C)(C)O2 | 2310 | 4270 | 4090 | 7890 | 7230 |
| CNCC(=O)Nc1cc(OC)ccc1C(=O)c1ccc(OC)c2c1C=CC(C)(C)O2 | 1370 | 2170 | 1590 | 3460 | 3040 |
| COc1ccc(C(=O)c2ccc(OC)c3c2OC(C)(C)C=C3)c(NC(=O)CN(C)C)c1 | 890 | 1050 | 790 | 1590 | 2680 |
| C=C(c1ccc2c(c1)C=CC(C)(C)O2)c1ccc(OC)cc1NC(=O)CN | 60 | 160 | 140 | 220 | 420 |
| COc1ccc(C(=O)c2ccc3c(c2)C=CC(C)(C)O3)c(NC(=O)CN(C)C)c1 | 1160 | 1260 | 1020 | 2420 | 3560 |
| COc1ccc(C(=O)c2cc(OC)c(OC)c(OC)c2)c(NC(=O)CN(C)C)c1 | 590 | 470 | 580 | 790 | 790 |
| COc1ccc(C(=O)c2ccc3c(c2)C=CC(C)(C)O3)c(NC(=O)CN)c1 | 310 | 580 | 590 | 490 | 680 |
| COc1ccc(C(=O)c2ccc(OC)c3c2C=CC(C)(C)O3)c(NC(=O)CO)c1 | 100 | 310 | 420 | 630 | 940 |
